Measurements taken from patent US10760110B2, “Antibiotic testing and screening system” (priority 2017, dated 2020).
Read-outs that look alike come from different tables or passages of the source.

Legend:
Conditions in all cases: Klebsiella pneumoniae
[1] = test system: K. pneumoniae NVT1001 and its ΔompK35/36 and/or ΔramR mutants; assay: Etest MIC, OmpK35/36 loss and AcrAB-TolC overexpression (ΔramR) strains (Table 6); type: cell-based, Klebsiella pneumoniae
How it was run: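 Ceftazidime and cefotaxime were tested by CLSI broth microdilution on the blaOXA-48 pACYC177 transformant of NVT1001, using CLSI 2017 breakpoints. Parent, porin-deleted (ΔompK35/36) and ΔramR strains were tested by Etest, with values between two-fold dilutions rounded up.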

[2] = test system: K. pneumoniae NVT1001 ΔramRΔompK35/36 mutant and its revertants; assay: Etest MIC, ΔramRΔompK35/36 mutant and its revertants (Table 7); type: cell-based
[3] = test system: K. pneumoniae NVT1001 strains with carbapenemase plasmids; assay: Etest MIC of β-lactams, OmpK35/36 loss, ΔramR and/or carbapenemase (Table 9); type: cell-based, Klebsiella pneumoniae
How it was run: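 Cloned resistance genes in pACYC177 or pACYC184 were electroporated into K. pneumoniae NVT1001. MICs were determined by Etest and rounded up to the next two-fold value. Ceftazidime and cefotaxime against the blaOXA-48 construct were also tested by CLSI broth microdilution, with breakpoints from CLSI 2017 (cephalothin CLSI 2015, moxifloxacin EUCAST 2017).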

[4] = ΔramRΔ35/36, ΔramRΔompK35/36 mutant
[5] = ΔramRΔompK35/36::ompK35/36 revertant
[6] = ΔramRΔompK35/36::ompK35 revertant
[7] = ΔramRΔompK35/36::ompK36 revertant
[8] = ΔramRΔompK35/36::ramR revertant
[9] = ΔramRΔompK35/36::ramR::ompK35/36 revertant
[10] = ΔramRΔompK35/36::ramR::ompK35 revertant
[11] = ΔramRΔompK35/36::ramR::ompK36 revertant
[12] = IMP-8 on pACYC177, WT (NVT1001), read-out: MIC
[13] = IMP-8 on pACYC177, Δ35 (ΔompK35 mutant)
[14] = IMP-8 on pACYC177, Δ35/36 (ΔompK35/36 mutant)
[15] = IMP-8 on pACYC177, Δ36 (ΔompK36 mutant)
[16] = IMP-8 on pACYC177, ΔramR mutant
[17] = IMP-8 on pACYC177, ΔramRΔ35 (ΔramRΔompK35 mutant)
[18] = IMP-8 on pACYC177, ΔramRΔ35/36 (ΔramRΔompK35/36 mutant)
[19] = IMP-8 on pACYC177, ΔramRΔ36 (ΔramRΔompK36 mutant)
[20] = KPC-2 on pACYC177, WT (NVT1001), read-out: MIC
[21] = KPC-2 on pACYC177, Δ35 (ΔompK35 mutant)
[22] = KPC-2 on pACYC177, Δ35/36 (ΔompK35/36 mutant)
[23] = KPC-2 on pACYC177, Δ36 (ΔompK36 mutant)
[24] = KPC-2 on pACYC177, ΔramR mutant
[25] = KPC-2 on pACYC177, ΔramRΔ35 (ΔramRΔompK35 mutant)
[26] = KPC-2 on pACYC177, ΔramRΔ35/36 (ΔramRΔompK35/36 mutant)
[27] = KPC-2 on pACYC177, ΔramRΔ36 (ΔramRΔompK36 mutant)
[28] = KPC-3 on pACYC177, WT (NVT1001), read-out: MIC
[29] = KPC-3 on pACYC177, Δ35 (ΔompK35 mutant)
[30] = KPC-3 on pACYC177, Δ35/36 (ΔompK35/36 mutant)
[31] = KPC-3 on pACYC177, Δ36 (ΔompK36 mutant)
[32] = KPC-3 on pACYC177, ΔramR mutant
[33] = KPC-3 on pACYC177, ΔramRΔ35 (ΔramRΔompK35 mutant)
[34] = KPC-3 on pACYC177, ΔramRΔ35/36 (ΔramRΔompK35/36 mutant)
[35] = KPC-3 on pACYC177, ΔramRΔ36 (ΔramRΔompK36 mutant)
[36] = NDM-1 on pACYC177, WT (NVT1001), read-out: MIC
[37] = NDM-1 on pACYC177, Δ35 (ΔompK35 mutant)
[38] = NDM-1 on pACYC177, Δ35/36 (ΔompK35/36 mutant)
[39] = NDM-1 on pACYC177, Δ36 (ΔompK36 mutant)
[40] = NDM-1 on pACYC177, ΔramR mutant
[41] = NDM-1 on pACYC177, ΔramRΔ35 (ΔramRΔompK35 mutant)
[42] = NDM-1 on pACYC177, ΔramRΔ35/36 (ΔramRΔompK35/36 mutant)
[43] = NDM-1 on pACYC177, ΔramRΔ36 (ΔramRΔompK36 mutant)
[44] = OXA-48 on pACYC177, WT (NVT1001), read-out: MIC
[45] = OXA-48 on pACYC177, Δ35 (ΔompK35 mutant)
[46] = OXA-48 on pACYC177, Δ35/36 (ΔompK35/36 mutant)
[47] = OXA-48 on pACYC177, Δ36 (ΔompK36 mutant)
[48] = OXA-48 on pACYC177, ΔramR mutant
[49] = OXA-48 on pACYC177, ΔramRΔ35 (ΔramRΔompK35 mutant)
[50] = OXA-48 on pACYC177, ΔramRΔ35/36 (ΔramRΔompK35/36 mutant)
[51] = OXA-48 on pACYC177, ΔramRΔ36 (ΔramRΔompK36 mutant)
[52] = VIM-1 on pACYC177, WT (NVT1001), read-out: MIC
[53] = VIM-1 on pACYC177, Δ35 (ΔompK35 mutant)
[54] = VIM-1 on pACYC177, Δ35/36 (ΔompK35/36 mutant)
[55] = VIM-1 on pACYC177, Δ36 (ΔompK36 mutant)
[56] = VIM-1 on pACYC177, ΔramR mutant
[57] = VIM-1 on pACYC177, ΔramRΔ35 (ΔramRΔompK35 mutant)
[58] = VIM-1 on pACYC177, ΔramRΔ35/36 (ΔramRΔompK35/36 mutant)
[59] = VIM-1 on pACYC177, ΔramRΔ36 (ΔramRΔompK36 mutant)
[60] = no supplemental plasmid, WT (NVT1001), read-out: MIC
[61] = no supplemental plasmid, Δ35 (ΔompK35 mutant)
[62] = no supplemental plasmid, Δ35/36 (ΔompK35/36 mutant)
[63] = no supplemental plasmid, Δ36 (ΔompK36 mutant)
[64] = no supplemental plasmid, ΔramR mutant
[65] = no supplemental plasmid, ΔramRΔ35 (ΔramRΔompK35 mutant)
[66] = no supplemental plasmid, ΔramRΔ35/36 (ΔramRΔompK35/36 mutant)
[67] = no supplemental plasmid, ΔramRΔ36 (ΔramRΔompK36 mutant)

Measured: MIC

C[C@@H](O)[C@H]1C(=O)N2C(C(=O)O)=C(S[C@@H]3CN[C@H](C(=O)N(C)C)C3)[C@H](C)[C@H]12 [Meropenem]
32 µg/mL: [3]; [20] | [3]; [24] | [3]; [29] | [3]; [32] | [3]; [36] | [3]; [37] | [3]; [40] | [3]; [41] | [3]; [57]
> 32 µg/mL: [3]; [14] | [3]; [18] | [3]; [19] | [3]; [21] | [3]; [22] | [3]; [23] | [3]; [25] | [3]; [26] | [3]; [27] | [3]; [30] | [3]; [31] | [3]; [33] | [3]; [34] | [3]; [35] | [3]; [38] | [3]; [39] | [3]; [42] | [3]; [43] | [3]; [46] | [3]; [50] | [3]; [51] | [3]; [53] | [3]; [54] | [3]; [55] | [3]; [56] | [3]; [58] | [3]; [59]
8 µg/mL: [3]; [47]
2 µg/mL: [1]; [4] | [1]; ΔramRΔ36, ΔramRΔompK36 mutant | [2]; [6] | [2]; ΔramRΔompK35/36 mutant | [3]; [12] | [3]; [15] | [3]; [16] | [3]; [17] | [3]; [44] | [3]; [45] | [3]; [48] | [3]; [49] | [3]; [66] | [3]; [67]
0.5 µg/mL: [1]; Δ35/36, ΔompK35/36 mutant | [2]; [8] | [3]; [62]
0.06 µg/mL: [1]; WT, NVT1001, read-out: MIC | [1]; Δ35, ΔompK35 mutant | [1]; Δ36, ΔompK36 mutant | [1]; ΔramR mutant | [1]; ΔramRΔ35, ΔramRΔompK35 mutant | [2]; [5] | [2]; [7] | [3]; [60] | [3]; [61] | [3]; [63] | [3]; [64] | [3]; [65]
0.125 µg/mL: [2]; [9] | [2]; [10] | [2]; [11]
16 µg/mL: [3]; [28] | [3]; [52]
1 µg/mL: [3]; [13]

C[C@@H](O)[C@H]1C(=O)N2C(C(=O)O)=C(S[C@@H]3CN[C@H](C(=O)Nc4cccc(C(=O)O)c4)C3)[C@H](C)[C@H]12 [Ertapenem]
32 µg/mL: [3]; [20] | [3]; [21] | [3]; [23] | [3]; [28] | [3]; [29] | [3]; [31] | [3]; [32] | [3]; [33] | [3]; [36]
> 32 µg/mL: [3]; [14] | [3]; [18] | [3]; [19] | [3]; [22] | [3]; [24] | [3]; [25] | [3]; [26] | [3]; [27] | [3]; [30] | [3]; [34] | [3]; [35] | [3]; [37] | [3]; [38] | [3]; [39] | [3]; [40] | [3]; [41] | [3]; [42] | [3]; [43] | [3]; [46] | [3]; [50] | [3]; [51] | [3]; [54] | [3]; [58] | [3]; [59]
8 µg/mL: [3]; [45] | [3]; [47] | [3]; [48] | [3]; [49]
2 µg/mL: [1]; Δ35/36, ΔompK35/36 mutant | [3]; [12] | [3]; [15] | [3]; [52] | [3]; [55] | [3]; [62]
0.03 µg/mL: [1]; Δ35, ΔompK35 mutant | [1]; Δ36, ΔompK36 mutant | [2]; [10] | [2]; [11] | [3]; [61] | [3]; [63]
0.015 µg/mL: [1]; WT, NVT1001, read-out: MIC | [2]; [9] | [3]; [60]
4 µg/mL: [1]; [4] | [1]; ΔramRΔ36, ΔramRΔompK36 mutant | [2]; [6] | [2]; ΔramRΔompK35/36 mutant | [3]; [13] | [3]; [16] | [3]; [17] | [3]; [44] | [3]; [53] | [3]; [56] | [3]; [57] | [3]; [66] | [3]; [67]
0.125 µg/mL: [1]; ΔramR mutant | [1]; ΔramRΔ35, ΔramRΔompK35 mutant | [2]; [5] | [2]; [7] | [3]; [64] | [3]; [65]
1 µg/mL: [2]; [8]
